Three compounds from patent publication US4959368A, “Therapeutic agent for neurological diseases” (Mitsui Petrochemical Industries Ltd., priority 1986, dated 1990) can be followed below.

For orientation: LD50 means the dose expected to kill half of the subjects tested.

For one series, the system named is mice. The experiment in a line: Acute toxicity, mouse. The series is classed as in vivo. The settings on record: 24 hours. How it is done: (§1) The acute toxicity of the compounds of the invention was examined by the following method.
(§2) Male ddy-strain 5-week old mice and male Wistar-strain 8 week old rats, five per group, were used as experimental animals. Each of the compounds was dissolved in saline and administered perorally, and the toxicity of the compound was assessed 24 hours after the administration.

The subject of the next series is rats. Nature of the series: Acute toxicity, rat. Type of series: in vivo. The following applies: Table 7, 1700 mg/kg p.o., 24 hours. On the procedure:
as §1, §2

A short description of another series: Acute toxicity, rat. The settings on record: in vivo, po, Table 7, p.o., read-out: Presumed LD50. The series is classed as in vivo. How it is done: as §1, §2
In series [1] the test system is mouse neuroblastoma cell line neuro-2a. The experiment in a line: Activity on neuro-2a, cells with outgrown neurites. The series is classed as cell-based. An outline of the steps: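 Mouse neuro-2a cells in DMEM with FCS exposed to compounds for 24 h (up to 6 concentrations, triplicate runs), glutaraldehyde-fixed and methylene blue-stained. Proportion of cells bearing a neurite at least twice the cell's long diameter counted microscopically over ≥200 cells.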

Series [2] shares this test system. Nature of the series: Activity on cell line neuro-2a (simple method). Type of series: cell-based. On the procedure: The biological activities in vitro of the compounds of formula (I) on cells of the nervous system were tested. The cells tested were human neuroblastoma cell line GOTO [see Sekiguchi, M., Oota, T., Sakakibara, K., Inui, N. & Fujii, G., Japan. J. Exp. Med., 49, 67-83 (1979)], and neuroblastoma cell line NB-1 [see Miyake, S., Shimo, Y., Kitamura, T., Nojyo, Y., Nakamura, T., Imkashuku, S. and Abe, T., The Autonomic Nervous System, 10, 115-120 (1973)], and mouse neuroblastoma cell line neuro-2a (Dainippon Pharmaceutical Co., Ltd.) which have been established as the cells of the nervous system. The above neuve cells were grown in an incubator at 37° C. in the presence of 5% carbon dioxide gas exponentially, and then cultivated for a certain period of time together with the compounds of formula (I). […]
(§3) As a simple method of evaluation, the number of cells have neurites with a length equal to, or larger than, the long diameter of the cell was divided by the total number of cells.

Series [3] relates to human neuroblastoma cell line GOTO. The experiment in a line: Activity on neuroblastoma cell line GOTO (cell number, number and length of neurites). The series is classed as cell-based. In outline: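 GOTO cells were cultured 1–2 days at 37 °C, 5% CO2, then switched to serum-free RPMI/MEM (1:1) with compounds in PBS at various concentrations for 24 h. Living cells were counted by erythrosine exclusion (3–6 dishes); neurite number and length per cell were measured from photographs.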

For series [4] the test system is unchanged. Nature of the series: Activity on cell line GOTO (simple method). The following applies: 10 μg/ml, control 8.4. Type of series: cell-based. How it is done: The biological activities in vitro of the compounds of formula (I) on cells of the nervous system were tested. The cells tested were human neuroblastoma cell line GOTO [see Sekiguchi, M., Oota, T., Sakakibara, K., Inui, N. & Fujii, G., Japan. J. Exp. Med., 49, 67-83 (1979)], and neuroblastoma cell line NB-1 [see Miyake, S., Shimo, Y., Kitamura, T., Nojyo, Y., Nakamura, T., Imkashuku, S. and Abe, T., The Autonomic Nervous System, 10, 115-120 (1973)], and mouse neuroblastoma cell line neuro-2a (Dainippon Pharmaceutical Co., Ltd.) which have been established as the cells of the nervous system. The above neuve cells were grown in an incubator at 37° C. in the presence of 5% carbon dioxide gas exponentially, and then cultivated for a certain period of time together with the compounds of formula (I).
A culture medium [composed of 45% of RPMI 1640 medium, 45% modified Eagle's medium (MEM) and 10% of fetal calf serum (FCS) and containing penicillin G sodium (100 units/ml) and streptomycin sulfate (100 microgram/ml)] containing neurobalstoma cell line GOTO in the logarithmic growth period was poured in an amount of 2 ml each into polystyrene dishes (35 mm; made by Corning Co.) so that the cell concentration was 2 to 6×10^4 cells per dish, and the cells were cultured for 1 to 2 days in a carbon dioxide gas incubator containing 5% of carbon dioxide gas in air at 37° C. Then, the culture fluid was removed, and 2 ml of a fresh serum-free culture fluid (consisting of 50% of RPMI medium and 50% of MEM medium and containing penicillin G sodium and streptomycin sulfate in the same amounts as above) was added. At the same time, a presterilized PBS solution (phosphate buffered saline) of each of the test compounds in various concentrations was added to each of the dishes. After culturing for 24 hours, the number of living cells was counted. Furthermore, the culture was photographed, and from the photos, the number and length of neurites per cell were measured. The numer of living cells was counted for 3 to 6 dishes by resistance to staining with erythrosine dye. The number and length of the neurites were measured with regard to 6 photos (more than 200 cells per photo).
as §3

[5] abbreviates: Table 2 neuro-2a Run No. 2, 1 μg/ml, control 7.9.
Where [6] appears, read: Table 1, Run No. 6 by footnote, 1 μg/ml, control 42.48 ± 19.64, all *P <0.01.
[7] abbreviates: Table 1, second control group (Run No. 6 by footnote), 1 μg/ml, control 1.79 ± 0.80.

On to `CN1Cc2nc(N3CCNCC3)ncc2C1=O` [Compound 602], for which the “Number of dead animals/number of test animals” value in the series on mice (Table 7, 1000 mg/kg p.o.) is 0/5; in the series with mice (Table 7, 1700 mg/kg p.o.) it was 0/5; in the series with mice (Table 7, 3000 mg/kg p.o.), 3/5; in the series with rats, 0/5. In addition, the LD50 at 24 h in the series “Acute toxicity, rat” is greater than 1700 mg/kg. The “Cells having neurites with a length at least twice the long diameter of cell/total number of cells” value in series [1] (Table 3 Run No. 6, 0.1 mM, control 4.4 ± 0.9) amounted to 6.2 ± 0.2%; in series [1] (Table 3 Run No. 6, 3 mM, control 4.4 ± 0.9), 10.0 ± 0.9%.
`CCN1Cc2nc(N3CCNCC3)ncc2C1=O` [Compound 616]: the “Number of dead animals/number of test animals” value is 0/5 in the series on mice (Table 7, 1000 mg/kg p.o.); 0/5 in the series on mice (Table 7, 1700 mg/kg p.o.); 4/5 with mice (Table 7, 3000 mg/kg p.o.); 0/5 with rats. Besides, the median lethal dose (LD50) at 24 h in “Acute toxicity, rat” was greater than 1700 mg/kg. The “Average of the proportions” value in series [2] (setting [5]) amounted to 15.79%; in series [2] (Table 2 neuro-2a Run No. 2, 10 μg/ml, control 7.9) it was 18.40%. For the same compound, the “Length of neurites (mean ± S.D.)” value in series [3] (setting [6]) came out at 56.68 ± 23.36 μm/cell; in series [3] (Table 1, Run No. 6 by footnote, 10 μg/ml, control 42.48 ± 19.64, all *P <0.01), 57.96 ± 27.96 μm/cell. The “Number of neurites/cell (mean ± S.D.)” value in series [3] (Table 1, Run No. 6 by footnote, 10 μg/ml, control 1.79 ± 0.80) is reported as 2.13 ± 0.91 neurites/cell; in series [3] (setting [7]), 2.04 ± 0.91 neurites/cell. Further, the “Cells having neurites with a length at least twice the long diameter of cell/total number of cells” value is on record as 10.6 ± 1.5% in series [1] (Table 3 Run No. 6, 0.3 mM, control 4.4 ± 0.9) and 10.3 ± 1.4% in series [1] (Table 3 Run No. 6, 1 mM, control 4.4 ± 0.9).
With `CC(C)Nc1ncccn1.O=P(O)(O)O` [Isaxonine, 2-isopropylaminopyrimidine ortho-phosphate, reference compound], the “Average of the proportions” value is reported as 12.58% in series [4] (Table 2 GOTO Run No. 1); 12.58% in series [4] (Table 2 GOTO Run No. 2); 12.15% in series [2] (Table 2 neuro-2a Run No. 1, 1 μg/ml, control 7.9); 12.15% in series [2] (setting [5]); 9.1% in series [2] (Table 2 neuro-2a Run No. 3, 0.1 μg/ml, control 2.0); 9.1% in series [2] (Table 2 neuro-2a Run No. 3, 1 μg/ml, control 2.0). For the same compound, the “Length of neurites (mean ± S.D.)” value amounted to 58.20 ± 25.40 μm/cell in series [3] (setting [6]); 57.06 ± 28.78 μm/cell in series [3] (Table 1, Run No. 7 by footnote, 1 μg/ml, control 42.20 ± 17.75, all *P <0.01); 87.86 ± 56.03 μm/cell in series [3] (Table 1 Run No. 1, 1 μg/ml, control 70.10 ± 43.03); 82.87 ± 50.70 μm/cell in series [3] (Table 1 Run No. 1, 10 μg/ml, control 70.10 ± 43.03); 66.01 ± 40.21 μm/cell in series [3] (Table 1 Run No. 2, 1 μg/ml, control 55.00 ± 37.26); 68.29 ± 24.83 μm/cell in series [3] (Table 1 Run No. 3, 1 μg/ml, control 45.13 ± 22.71, all *P <0.01). Besides, in series [3] (Table 1 Run No. 4, 1 μg/ml, control 54.15 ± 33.64), the “Length of neurites (mean ± S.D.)” value was found to be 71.25 ± 40.39 μm/cell. Also, the “Number of neurites/cell (mean ± S.D.)” value in series [3] (Table 1, last control group (Run No. 7 by footnote), 1 μg/ml, control 1.77 ± 0.68) amounted to 1.91 ± 0.56 neurites/cell; in series [3] (setting [7]) it was 2.00 ± 0.86 neurites/cell; in series [3] (Table 1 Run No. 1, 1 μg/ml, control 2.09 ± 0.61) it was 2.18 ± 0.77 neurites/cell; in series [3] (Table 1 Run No. 1, 10 μg/ml, control 2.09 ± 0.61) it was 1.99 ± 0.51 neurites/cell; in series [3] (Table 1 Run No. 2, 1 μg/ml, control 2.06 ± 0.60) it was 2.09 ± 0.66 neurites/cell; in series [3] (Table 1 Run No. 3, 1 μg/ml, control 1.94 ± 0.69, all *P <0.01), 2.31 ± 0.86 neurites/cell. In series [3] (Table 1 Run No. 4, 1 μg/ml, control 1.98 ± 0.74), the “Number of neurites/cell (mean ± S.D.)” value turned out to be 1.99 ± 0.70 neurites/cell. The “Number of cells (mean ± S.E.)” value is on record as 17.63 ± 2.80 × 10^4 /dish in series [3] (Table 1 Run No. 1, 1 μg/ml, control 14.34 ± 0.72); 19.18 ± 0.67 × 10^4 /dish in series [3] (Table 1 Run No. 1, 10 μg/ml, control 14.34 ± 0.72); 14.89 ± 1.35 × 10^4 /dish in series [3] (Table 1 Run No. 2, 1 μg/ml, control 12.30 ± 1.48); 9.44 ± 1.95 × 10^4 /dish in series [3] (Table 1 Run No. 4, 1 μg/ml, control 5.48 ± 1.38). Further, the Number of cells in series [3] (Table 1 Run No. 3, 1 μg/ml, control 3.17) is listed as 4.72 × 10^4 /dish. Also, the “Cells having neurites with a length at least twice the long diameter of cell/total number of cells” value in series [1] (Table 3 Run No. 3, 0.03 mM, control 3.9 ± 0.3) was 4.7 ± 0.4%; in series [1] (Table 3 Run No. 3, 0.1 mM, control 3.9 ± 0.3) it was 6.8 ± 1.2%; in series [1] (Table 3 Run No. 3, 1 mM, control 3.9 ± 0.3) it was 7.0 ± 0.8%; in series [1] (Table 3 Run No. 4, 1 mM, control 3.1 ± 0.2), 5.7 ± 1.2%; in series [1] (Table 3 Run No. 4, 3 mM, control 3.1 ± 0.2), 13.6 ± 2.3%; in series [1] (Table 3 Run No. 4, 10 mM, control 3.1 ± 0.2) it was 34.4 ± 0.6%. The “Cells having neurites with a length at least twice the long diameter of cell/total number of cells” value came out at 29.9 ± 0.9% in series [1] (Table 3 Run No. 6, 10 mM, control 4.4 ± 0.9); 24.9 ± 1.0% in series [1] (Table 3 Run No. 7, 10 mM, control 2.5 ± 0.7); 28.2 ± 1.6% in series [1] (Table 3 Run No. 8, 10 mM, control 3.7 ± 0.4); 6.8 ± 2.2% in series [1] (Table 3 second Run No. 5, 1 mM, control 4.5 ± 0.3); 27.0 ± 3.4% in series [1] (Table 3 second Run No. 5, 10 mM, control 4.5 ± 0.3).
